# Earlier results as cited in patent EP3373945B1, “AN ORAL DRUG FORMULATION COMPRISING SILYBIN” (ISTITUTO BIOCHIMICO ITALIANO GIOVANNI LORENZINI S.p.A., priority 2015, dated 2017).
structure (smiles),measurement,value
COc1cc(C2Oc3cc([C@H]4Oc5cc(O)cc(O)c5C(=O)[C@@H]4O)ccc3OC2CO)ccc1O (stereo partly shown) [silybin],water solubility,430 µg/mL
